Assay results taken from US9045491B2, “Thienyl [3,2-D] pyrimidin-4-one compounds, preparation method, pharmaceutical compositions and use thereof” (SHANGHAI INSTITUTE OF MATERIA MEDICA, CHINESE ACADEMY OF …, priority 2011, dated 2015).

Columns and labels:
Format in all cases: biochemical
human DPP IV = target: T1, human DPP IV (Homo sapiens, UniProt P27487); assay: DPP IV activity screening (Ala-Pro-AMC fluorescence)
T1 construct: extracellular fragment of protease DPP IV (aa29-766); made in house; host or cells: baculovirus expression system Bac-to-Bac
Protocol: (§1) Screening method: dipeptidyl peptidase IV (DPP IV) activity screening, dipeptidyl peptidase 7 (DPP 7), dipeptidyl peptidase 8 (DPP 8) activity screening, and dipeptidyl peptidase 9 (DPP 9) activity screening.
Instruments: Microplate Reader (PerkinElmer, USA).
The linear change of fluorescence value at 460 nm in unit time was dynamically measured and DPP IV activity was obtained by calculation.
(§2) Sample treatment: the sample was dissolved in DMSO and stored in low temperature. The concentration of DMSO in the final system was controlled so that the detected activity was not affected.
(§3) The activity of sample was tested under the selected single concentration from preliminary screening, for example, 20 μg/mL. […] The software for calculation was Graphpad Prism 4 and the model used for fitting was sigmoidal dose-response (variable slope). For most inhibitor screening models, the bottom and top of the fitting curve were set to 0 and 100.

[1] = target: dipeptidyl peptidase 7 (DPP 7) (Homo sapiens, UniProt Q9UHL4); assay: DPP 7 activity screening; details: N.I. = No Inhibition
Protocol: as §1, §2, §3

human DPP 8 = target: T2, human DPP 8 (Homo sapiens, UniProt Q6V1X1); assay: DPP 8 activity screening (Ala-Pro-AMC fluorescence); details: N.I. = No Inhibition
T2 construct: made in house; host or cells: insect cells, baculovirus Bac-to-Bac
Excerpt: as §1
(§4) Materials: human DPP IV, obtained extracellular fragment of protease DPP IV (aa29-766), was expressed and purified by our laboratory using baculovirus expression system Bac-to-Bac (purchased from GIBCO company) in accordance with the conventional experimental technology; human DPP 8 was obtained in insect cells by our laboratory using baculovirus expression system Bac-to-Bac (purchased from GIBCO company) in accordance with the conventional experimental technology; Human DPP 9 was obtained in insect cells by our laboratory using baculovirus expression system Bac-to-Bac (purchased from GIBCO company) in accordance with the conventional experimental technology; and the substrate Ala-Pro-AMC was synthesized by GL Biochem (Shanghai) Ltd.
(§5) Principle of Activity test: DPP IV, DPP 8 and DPP 9 can specifically hydrolyze the substrate Ala-Pro-AMC to form product AMC, and AMC is excited by 355 nm of UV light to generate 460 nm of emission light. The linear change of fluorescence value at 460 nm in unit time was dynamically measured and DPP IV activity was obtained by calculation.
as §2, §3

Human DPP 9 = target: T3, Human DPP 9 (Homo sapiens, UniProt Q86TI2); assay: DPP 9 activity screening (Ala-Pro-AMC fluorescence); details: N.I. = No Inhibition
T3 construct: made in house; host or cells: insect cells, baculovirus Bac-to-Bac
Excerpt: as §1, §4, §5, §2, §3

FAP = target: T4, FAP (Homo sapiens, UniProt Q12884); assay: FAP inhibition (Table 1); details: N.I. = No Inhibition
T4 sequence (Q12884 1-760): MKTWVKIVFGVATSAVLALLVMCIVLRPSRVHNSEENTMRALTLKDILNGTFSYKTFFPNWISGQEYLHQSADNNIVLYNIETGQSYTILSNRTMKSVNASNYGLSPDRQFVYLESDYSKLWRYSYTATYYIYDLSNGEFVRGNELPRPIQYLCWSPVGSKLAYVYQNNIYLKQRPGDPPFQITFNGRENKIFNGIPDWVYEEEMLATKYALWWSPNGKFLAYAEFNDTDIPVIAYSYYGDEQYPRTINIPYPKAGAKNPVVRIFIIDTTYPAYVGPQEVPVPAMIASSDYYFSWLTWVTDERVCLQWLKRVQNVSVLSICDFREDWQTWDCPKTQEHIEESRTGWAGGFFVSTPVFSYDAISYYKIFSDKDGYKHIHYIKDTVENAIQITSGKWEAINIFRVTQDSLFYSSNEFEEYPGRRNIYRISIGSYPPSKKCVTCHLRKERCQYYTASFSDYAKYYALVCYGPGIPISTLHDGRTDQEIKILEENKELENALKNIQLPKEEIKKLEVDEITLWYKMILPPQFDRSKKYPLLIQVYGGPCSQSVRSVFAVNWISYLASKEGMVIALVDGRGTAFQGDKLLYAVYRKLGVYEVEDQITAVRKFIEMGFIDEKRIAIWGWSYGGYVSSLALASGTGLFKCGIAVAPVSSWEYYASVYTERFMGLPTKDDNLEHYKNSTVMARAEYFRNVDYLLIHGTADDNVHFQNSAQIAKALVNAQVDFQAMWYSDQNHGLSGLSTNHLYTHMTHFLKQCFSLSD

T2 sequence (Q6V1X1 whole entry): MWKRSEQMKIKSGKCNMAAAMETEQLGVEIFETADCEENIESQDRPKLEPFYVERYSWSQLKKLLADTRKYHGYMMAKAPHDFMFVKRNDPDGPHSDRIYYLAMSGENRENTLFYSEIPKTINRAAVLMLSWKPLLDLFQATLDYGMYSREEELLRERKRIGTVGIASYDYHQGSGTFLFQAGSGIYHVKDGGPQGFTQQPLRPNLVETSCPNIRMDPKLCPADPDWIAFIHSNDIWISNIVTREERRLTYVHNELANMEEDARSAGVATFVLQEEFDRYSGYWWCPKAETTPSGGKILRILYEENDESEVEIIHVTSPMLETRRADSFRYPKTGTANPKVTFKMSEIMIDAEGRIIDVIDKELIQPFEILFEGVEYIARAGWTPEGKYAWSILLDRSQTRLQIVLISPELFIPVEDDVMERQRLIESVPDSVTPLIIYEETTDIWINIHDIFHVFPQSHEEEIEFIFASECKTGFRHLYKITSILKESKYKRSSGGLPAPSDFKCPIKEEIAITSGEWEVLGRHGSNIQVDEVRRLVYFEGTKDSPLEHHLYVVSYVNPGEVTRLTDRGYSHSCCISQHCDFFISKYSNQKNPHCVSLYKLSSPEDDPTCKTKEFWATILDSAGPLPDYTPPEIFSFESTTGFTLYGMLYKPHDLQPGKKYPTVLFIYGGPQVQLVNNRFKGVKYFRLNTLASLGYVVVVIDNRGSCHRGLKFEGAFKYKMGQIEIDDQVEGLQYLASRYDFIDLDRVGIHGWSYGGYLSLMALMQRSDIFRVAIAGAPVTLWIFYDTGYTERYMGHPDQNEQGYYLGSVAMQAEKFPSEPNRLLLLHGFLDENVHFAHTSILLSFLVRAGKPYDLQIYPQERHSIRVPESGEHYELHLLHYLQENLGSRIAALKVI
T1 sequence (P27487 29-766): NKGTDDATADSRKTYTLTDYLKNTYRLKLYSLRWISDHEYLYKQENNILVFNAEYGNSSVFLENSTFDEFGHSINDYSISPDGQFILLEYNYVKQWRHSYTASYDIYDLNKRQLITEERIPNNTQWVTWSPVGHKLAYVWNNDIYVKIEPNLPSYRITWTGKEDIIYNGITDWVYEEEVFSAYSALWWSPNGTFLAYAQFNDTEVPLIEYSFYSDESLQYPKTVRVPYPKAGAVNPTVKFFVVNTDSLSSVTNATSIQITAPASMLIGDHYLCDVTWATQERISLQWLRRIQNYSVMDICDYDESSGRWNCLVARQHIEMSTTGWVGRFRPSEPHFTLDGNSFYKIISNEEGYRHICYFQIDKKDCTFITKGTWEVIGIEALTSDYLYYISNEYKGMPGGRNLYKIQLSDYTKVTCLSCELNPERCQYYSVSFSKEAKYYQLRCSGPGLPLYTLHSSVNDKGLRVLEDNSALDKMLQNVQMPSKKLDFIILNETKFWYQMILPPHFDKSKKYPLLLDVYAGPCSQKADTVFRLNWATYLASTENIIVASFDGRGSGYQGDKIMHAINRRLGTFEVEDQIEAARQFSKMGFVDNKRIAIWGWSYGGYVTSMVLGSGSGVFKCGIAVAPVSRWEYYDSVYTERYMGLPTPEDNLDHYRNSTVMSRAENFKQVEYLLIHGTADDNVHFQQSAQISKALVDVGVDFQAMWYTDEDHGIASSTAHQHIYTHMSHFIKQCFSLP
T3 sequence (Q86TI2 whole entry): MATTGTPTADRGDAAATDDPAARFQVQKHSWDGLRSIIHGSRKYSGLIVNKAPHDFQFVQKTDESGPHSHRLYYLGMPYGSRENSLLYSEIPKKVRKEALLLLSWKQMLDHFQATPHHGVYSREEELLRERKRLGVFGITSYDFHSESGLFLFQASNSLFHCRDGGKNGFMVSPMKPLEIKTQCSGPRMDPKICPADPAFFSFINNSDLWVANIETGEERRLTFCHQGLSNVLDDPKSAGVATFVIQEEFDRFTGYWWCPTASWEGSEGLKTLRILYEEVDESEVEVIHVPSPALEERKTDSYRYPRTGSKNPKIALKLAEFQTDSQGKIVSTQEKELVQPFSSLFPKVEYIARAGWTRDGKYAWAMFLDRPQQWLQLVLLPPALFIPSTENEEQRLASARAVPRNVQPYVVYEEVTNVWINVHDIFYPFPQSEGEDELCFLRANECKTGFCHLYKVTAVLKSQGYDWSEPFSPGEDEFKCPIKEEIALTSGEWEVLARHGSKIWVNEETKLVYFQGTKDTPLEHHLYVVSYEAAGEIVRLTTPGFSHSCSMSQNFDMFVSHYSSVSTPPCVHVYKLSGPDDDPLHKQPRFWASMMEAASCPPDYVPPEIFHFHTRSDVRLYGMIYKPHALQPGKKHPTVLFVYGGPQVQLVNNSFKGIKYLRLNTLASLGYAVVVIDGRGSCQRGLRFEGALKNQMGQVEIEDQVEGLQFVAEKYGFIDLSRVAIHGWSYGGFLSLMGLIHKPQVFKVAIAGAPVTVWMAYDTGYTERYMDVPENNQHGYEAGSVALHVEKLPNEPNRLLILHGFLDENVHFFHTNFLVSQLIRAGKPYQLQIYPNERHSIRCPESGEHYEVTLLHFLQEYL

IC50 (human DPP IV)	DPP 7 IC50 [1]	IC50 (human DPP 8)	IC50 (Human DPP 9)	IC50 (FAP)	IC50 [1]	DPP 8 IC50 (human DPP 8)	DPP 9 IC50 (Human DPP 9)	FAP IC50 (FAP)	Compound
0.0202 µM	N.I.	59.4 µM	348 µM	44 µM	–	–	–	–	N#Cc1ccccc1Cn1c(N2CCC[C@@H](N)C2)nc2c(C(=O)NC3CCOCC3)csc2c1=O [Compound 81, (R)-2-(3-aminopiperidin-1-yl)-3-(2-cyanobenzyl)-4-oxo-N-(tetrahydro-2H-pyran-4-yl)-3,4-dihydrothieno[3,2-d]-pyrimidine-7-carboxamide]
0.0247 µM	N.I.	66 µM	179 µM	178 µM	–	–	–	–	COC(=O)CNC(=O)c1cc2nc(N3CCC[C@@H](N)C3)n(Cc3ccccc3C#N)c(=O)c2s1 [Compound 99, (R)-methyl 2-(2-(3-aminopiperidin-1-yl)-3-(2-cyanobenzyl)-4-oxo-3,4-dihydrothieno[3,2-d]pyrimidine-6-carboxamido)acetate]
0.0241 µM	N.I.	39.7 µM	122 µM	98.6 µM	–	–	–	–	N#Cc1ccccc1Cn1c(N2CCC[C@@H](N)C2)nc2cc(C(=O)N3CCCC3)sc2c1=O [Compound 107, (R)-2-((2-(3-aminopiperidin-1-yl)-4-oxo-6-(pyrrolidine-1-carbonyl)thieno-[3,2-d]pyrimidin-3(4H)-yl)methyl)-benzonitrile]
0.0283 µM	N.I.	–	–	–	–	N.I.	N.I.	N.I.	Cl.N#Cc1ccccc1Cn1c(N2CCC[C@@H](N)C2)nc2cc(C(=O)O)sc2c1=O [Compound 39, (R)-2-(3-aminopiperidin-1-yl)-3-(2-cyanobenzyl)-4-oxo-3,4-dihydrothieno-[3,2-d]pyrimidine-6-carboxylic acid hydrochloride]
0.0269 µM	N.I.	–	–	–	–	N.I.	N.I.	N.I.	CC(C)CCNC(=O)c1cc2nc(N3CCC[C@@H](N)C3)n(Cc3ccccc3C#N)c(=O)c2s1 [Compound 121, (R)-2-(3-aminopiperidin-1-yl)-3-(2-cyanobenzyl)-N-isopentyl-4-oxo-3,4-dihydrothieno[3,2-d]pyrimidine-6-carboxamide]
0.0384 µM	N.I.	27.8 µM	32.6 µM	68.5 µM	–	–	–	–	COC(=O)[C@H](Cc1ccccc1)NC(=O)c1cc2nc(N3CCC[C@@H](N)C3)n(Cc3ccccc3C#N)c(=O)c2s1 [Compound 102, (S)-methyl 2-(2-((R)-3-aminopiperidin-1-yl)-3-(2-cyanobenzyl)-4-oxo-3,4-dihydrothieno[3,2-d]pyrimidine-6-carboxamido)-3-phenylpropanoate]
0.0288 µM	–	60.4 µM	407 µM	64.3 µM	27.1 µM	–	–	–	CC(C)CCNC(=O)c1csc2c(=O)n(Cc3ccccc3C#N)c(N3CCC[C@@H](N)C3)nc12 [Compound 78, (R)-2-(3-aminopiperidin-1-yl)-3-(2-cyanobenzyl)-N-isopentyl-4-oxo-3,4-dihydrothieno[3,2-d]pyrimidine-7-carboxamlde]
0.0111 µM	–	49.4 µM	–	45.2 µM	30 µM	–	N.I.	–	CCCCNC(=O)c1csc2c(=O)n(Cc3ccccc3C#N)c(N3CCC[C@@H](N)C3)nc12 [Compound 77, (R)-2-(3-aminopiperidln-1-yl)-N-butyl-3-(2-cyanobenzyl)-4-oxo-3,4-dihydrothieno[3,2-d]pyrimidine-7-carboxamide]
0.0178 µM	N.I.	–	–	–	–	N.I.	N.I.	N.I.	N#Cc1ccccc1Cn1c(N2CCC[C@@H](N)C2)nc2c(CN3CCOCC3)csc2c1=O [Compound 55, (R)-2-((2-(3-aminopiperidin-1-yl)-7-(morpholinomethyl)-4-oxothieno-[3,2-d]pyrimidin-3(4H)-yl)methyl)-benzonitrile]
0.00357 µM	N.I.	–	–	–	–	N.I.	N.I.	N.I.	N#Cc1ccccc1Cn1c(N2CCC[C@@H](N)C2)nc2c(C(N)=O)csc2c1=O [Compound 45, (R)-2-(3-aminopiperidin-1-yl)-3-(2-cyanobenzyl)-4-oxo-3,4-dihydrothieno-[3,2-d]pyrimidine-7-carboxamide]
0.00892 µM	–	9.08 µM	66.8 µM	14.6 µM	159 µM	–	–	–	N#Cc1ccccc1Cn1c(N2CCC[C@@H](N)C2)nc2c(C(=O)NCC3CC3)csc2c1=O [Compound 73, (R)-2-(3-aminopiperidin-1-yl)-3-(2-cyanobenzyl)-N-(cyclopropylmethyl)-4-oxo-3,4-dihydrothieno[3,2-d]-pyrimidine-7-carboxamide]
0.0592 µM	N.I.	–	–	–	–	N.I.	N.I.	N.I.	N#Cc1ccccc1Cn1c(N2CCC[C@@H](N)C2)nc2cc(CN3CCOCC3)sc2c1=O [Compound 95, (R)-2-((2-(3-aminopiperidin-1-yl)-6-(morpholinomethyl)-4-oxothieno-[3,2-d]pyrimidin-3(4H)-yl)methyl)benzonitrile]
0.0185 µM	N.I.	83.6 µM	–	80.2 µM	–	–	N.I.	–	N#Cc1ccccc1Cn1c(N2CCC[C@@H](N)C2)nc2cc(C(=O)N3CCOCC3)sc2c1=O [Compound 118, (R)-2-((2-(3-aminopiperidin-1-yl)-6-(morpholine-4-carbonyl)-4-oxothieno-[3,2-d]pyrimidin-3(4H)-yl)methyl)-benzonitrile]
0.0198 µM	N.I.	223 µM	–	–	–	–	N.I.	–	N#Cc1ccccc1Cn1c(N2CCC[C@@H](N)C2)nc2cc(C(=O)NCCO)sc2c1=O [Compound 123, (R)-2-(3-aminopiperidin-1-yl)-3-(2-cyanobcnzyl)-N-(2-hydroxyethyl)-4-oxo-3,4-dihydrothieno[3,2-d]-pyrimidine-6-carboxamide]
0.0148 µM	N.I.	54.9 µM	–	–	–	–	N.I.	–	CCOC(=O)CCNC(=O)c1csc2c(=O)n(Cc3ccccc3C#N)c(N3CCC[C@@H](N)C3)nc12 [Compound 88, (R)-ethyl 3-(2-(3-aminopiperidin-1-yl)-3-(2-cyanobenzyl)-4-oxo-3,4-dihydrothieno[3,2-d]pyrimidine-7-carboxamido)propanoate]

Compound	IC50 (human DPP IV)	DPP 7 IC50 [1]	IC50 (human DPP 8)	IC50 (Human DPP 9)	IC50 (FAP)	IC50 [1]	DPP 8 IC50 (human DPP 8)	DPP 9 IC50 (Human DPP 9)	FAP IC50 (FAP)
COC(=O)c1csc2c(=O)n(Cc3ccccc3C#N)c(N3CCC[C@@H](N)C3)nc12 [Compound 57, (R)-methyl 2-(3-aminopiperidin-1-yl)-3-(2-cyanobenzyl)-4-oxo-3,4-dihydrothieno[3,2-d]pyrimidine-7-carboxylate]	0.02 µM	–	–	–	–	69.5 µM	N.I.	N.I.	N.I.
N#Cc1ccccc1Cn1c(N2CCC[C@@H](N)C2)nc2c(CO)csc2c1=O [Compound 43, (R)-2-((2-(3-aminopiperidin-1-yl)-7-(hydroxymethyl)-4-oxothieno[3,2-d]-pyrimidin-3(4H)-yl)methyl)benzonitrile]	0.0189 µM	N.I.	–	–	–	–	N.I.	N.I.	N.I.
